From US4847272A, “Thianaphthene derivatives” (Sankyo Company Limited, priority 1986, dated 1989)
Structures can show the parent of a compound that is named as a salt.

Tests used:
[1] = target: T1, Thromboxane A2 Synthetase (Oryctolagus cuniculus, UniProt G1TAZ9); test: Inhibition of Thromboxane A2 Synthetase, rabbit platelet microsomes; format: biochemical; settings: 1-[14C] arachidonic acid 0.1 mM, 1 minute at 22° C., read-out: IC50, concentration required to inhibit the activity of thromboxane synthetase by 50%
T1 construct: The platelet microsome fraction was separated from rabbit and from human blood; from tissue; host or cells: rabbit blood platelets, microsome fraction
T1 sequence (G1TAZ9 1-530): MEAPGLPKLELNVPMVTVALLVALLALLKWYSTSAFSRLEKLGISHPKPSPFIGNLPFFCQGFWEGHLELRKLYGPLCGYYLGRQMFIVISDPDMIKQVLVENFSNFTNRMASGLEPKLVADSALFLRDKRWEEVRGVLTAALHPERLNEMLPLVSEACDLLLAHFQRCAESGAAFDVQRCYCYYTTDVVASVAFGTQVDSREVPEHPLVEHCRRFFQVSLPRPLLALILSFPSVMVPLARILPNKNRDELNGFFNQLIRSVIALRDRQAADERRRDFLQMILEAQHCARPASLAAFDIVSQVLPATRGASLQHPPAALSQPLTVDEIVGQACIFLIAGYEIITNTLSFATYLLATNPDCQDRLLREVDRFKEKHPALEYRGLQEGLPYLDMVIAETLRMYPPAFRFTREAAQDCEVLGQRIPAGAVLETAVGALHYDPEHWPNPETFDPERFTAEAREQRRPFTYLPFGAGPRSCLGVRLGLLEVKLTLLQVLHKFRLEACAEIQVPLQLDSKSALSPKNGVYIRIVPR
Description: (§1) The platelet microsome fraction was separated from rabbit and from human blood by the method of Needleman et al. [Needleman et al., Science, 193, 163 (1976)]. The microsomal TXA2 synthetase activity in the presence of various of the compounds of the invention at various concentrations was assayed by a modification of the method of […] et al. [[…] et al., Prostaglandins, 21, 543 (1981)] by incubating the microsome fractions with labelled 1-[^14 C] arachidonic acid at a concentration of 0.1 mM for 1 minute at 22° C., to a final volume of 0.2 ml. The reaction was terminated by the addition of […] of 0.2M citric acid, and then the mixture was extracted with 1.5 ml of ethyl acetate. […] The developing solvent for the chromatography was a 90:8:1:0.8 by volume mixture of chloroform, methanol, acetic acid and water. […] The results are shown in the following Tables 1 and 2 as the IC50, i.e. the concentration required to inhibit the activity of thromboxane synthetase by 50%. The results using rabbits platelet microsomes are given in Table 1, whilst the results using human platelet microsomes are given in Table 2.

[2] = tested on: rabbits; test: Antithrombotic Activity in Rabbits (sudden death after i.v. arachidonic acid); format: in vivo, male Japanese white rabbits; settings: Oryctolagus cuniculus, 1 h; oral, one hour before 1.3 mg/kg arachidonic acid i.v.; Probit's method
Description: This test was carried out by a modification of the method of Silver et al. [Science, 183, 1085 (1974)]. The test animals used were male Japanese white rabbits of approximately 3 kg body weight. Each group of rabbits was administered orally the test compound at an appropriate dose and then, one hour after the oral administration, each was given 1.3 mg/kg of arachidonic acid by intravenous injection. The test animals were observed and sudden deaths during the test period were recorded. The ED50 was determined by Probit's method. Unmedicated rabbits were employed as a control, without administering any test compound, but these were all dead within several minutes after the injection of arachidonic acid, as a result of pulmonary thromboembolisms.

[3] = target: T2, Thromboxane A2 Synthetase (Homo sapiens, UniProt P24557); test: Inhibition of Thromboxane A2 Synthetase, human platelet microsomes; format: biochemical; settings: 1-[14C] arachidonic acid 0.1 mM, 1 minute at 22° C., read-out: IC50, concentration required to inhibit the activity of thromboxane synthetase by 50%
T2 construct: The platelet microsome fraction was separated from rabbit and from human blood; from tissue; host or cells: human blood platelets, microsome fraction
T2 sequence (P24557 1-533): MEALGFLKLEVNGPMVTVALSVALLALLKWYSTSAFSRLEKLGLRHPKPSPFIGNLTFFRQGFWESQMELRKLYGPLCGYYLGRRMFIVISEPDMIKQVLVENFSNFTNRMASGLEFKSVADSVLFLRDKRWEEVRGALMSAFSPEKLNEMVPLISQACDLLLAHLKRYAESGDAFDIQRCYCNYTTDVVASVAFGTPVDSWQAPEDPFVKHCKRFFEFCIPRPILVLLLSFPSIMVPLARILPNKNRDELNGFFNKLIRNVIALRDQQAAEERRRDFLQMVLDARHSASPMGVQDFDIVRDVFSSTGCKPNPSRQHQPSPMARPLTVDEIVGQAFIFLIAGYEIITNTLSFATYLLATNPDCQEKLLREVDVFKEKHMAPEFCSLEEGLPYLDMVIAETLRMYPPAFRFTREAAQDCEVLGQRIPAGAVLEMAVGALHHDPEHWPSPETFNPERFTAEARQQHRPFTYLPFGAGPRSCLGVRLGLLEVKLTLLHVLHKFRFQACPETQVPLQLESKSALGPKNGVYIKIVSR
Description: as §1

Compound	IC50 [1]	ED50 [2]	IC50 [3]
Cl.O=C(O)c1ccc(OCCn2ccnc2)cc1 [Dazoxiben, 4-[2-(1-imidazolyl)ethoxy]benzoic acid hydrochloride, reference compound]	0.106 µM	1.1 mg/kg	–
O=C(O)C1CCc2sc(Cn3ccnc3)cc2C1 (stereo not drawn) [Compound C, 4,5,6,7-tetrahydro-2-(1-imidazolyl)methylthianaphthene-5-carboxylic acid hydrochloride]	0.086 µM	–	–
O=C(O)C1=Cc2sc(Cn3ccnc3)cc2CC1 [Compound B, sodium 4,5-dihydro-2-(1-imidazolyl)methylthianaphthene-6-carboxylate]	0.013 µM	0.12 mg/kg	0.031 µM
O=C(O)C1CCc2cc(Cn3ccnc3)sc2C1 (stereo not drawn) [Compound A, 4,5,6,7-tetrahydro-2-(1-imidazolyl)methylthianaphthene-6-carboxylic acid hydrochloride]	0.026 µM	0.27 mg/kg	0.03 µM
